From PMC4466645 (Oncotarget, 2015)
pIC50: −log10 of the molar value.

Tests used:
[1] = system: AML cell lines expressing Mer or Flt3 internal tandem duplication (ITD); assay: Colony formation, AML cell lines expressing Mer or Flt3-ITD (all lines together); format: cell-based; details: compared to treatment with vehicle
Procedure: Cell lines were plated at a density of 1000 cells/ml in 0.35% agar over 0.5% agar base layer. […] Colonies were grown for 14 (NOMO-1, MV4;11, MOLM-13) or 21 days (Kasumi-1) prior to staining with 1 mg/ml nitrotetrazolium blue (Sigma-Aldrich). Treatment-containing medium was renewed twice weekly. […]. Human mononuclear cells were isolated from umbilical cord blood samples using Ficoll-Paque PLUS (GE Healthcare Life Sciences). […]. Cell line and patient sample colonies were counted using a GelCount colony counter (Oxford Optronix) and cord blood colonies were manually counted in a blinded, non-biased manner.

[2] = system: normal umbilical cord blood; assay: Colony formation in methylcellulose, normal umbilical cord blood hematopoietic precursors; format: cell-based, human
Procedure: (§1) Cell lines were plated at a density of 1000 cells/ml in 0.35% agar over 0.5% agar base layer. […] Colonies were grown for 14 (NOMO-1, MV4;11, MOLM-13) or 21 days (Kasumi-1) prior to staining with 1 mg/ml nitrotetrazolium blue (Sigma-Aldrich). Treatment-containing medium was renewed twice weekly. […] Human mononuclear cells were isolated from umbilical cord blood samples using Ficoll-Paque PLUS (GE Healthcare Life Sciences). […] Cell line and patient sample colonies were counted using a GelCount colony counter (Oxford Optronix) and cord blood colonies were manually counted in a blinded, non-biased manner.

Kasumi-1 = assay: Soft agar colony formation assay, Kasumi-1; format: cell-based; details: Kasumi-1, 100 nM, 21 days, normalized to vehicle
Procedure: as §1

[3] = system: Erk1/2, Akt and Stat6 phosphorylation; assay: Downstream signaling immunoblot in Mer expressing cell lines; format: cell-based; details: two hour treatment
Procedure: Whole cell lysates were prepared and proteins were resolved on Tris-Glycine SDS-PAGE gels (Invitrogen) and transferred onto nitrocellulose membranes. Membranes were blocked in tris-buffered saline with 0.1% Tween-20 containing 5% bovine serum albumin (when probing for Flt3) or 5% milk (when probing for all other molecules). For immunoprecipitation assays, cells were plated and treated as above, then treated with pervanadate for 10 minutes prior to cell lysis to stabilize the phosphorylation status. With the use of pervandate, it was not necessary to stimulate cells with exogenous Mer or Flt3 ligands (other than from fetal bovine serum) to detect phosphorylated Mer and Flt3 proteins. Anti-Mer antibody or anti-Flt3 and rec-Protein G-sepharose beads (Invitrogen) were added and lysates were incubated overnight on a rocking platform. Beads were washed and eluted proteins were resolved as above. Immunoprecipitate membranes were probed with an anti-phospho-Mer or anti-phospho-Flt3 antibody. After visualization, membranes were stripped and reprobed for total protein. The following antibodies were used according to manufacturer recommendations: anti-Mer (ab52968, AbCam); anti-phospho-Mer (Phosphosolutions Inc.); anti-Flt3 (sc-480), anti-Actin (sc-1616), anti-pan-Trk (sc-11), donkey-anti-goat IgG-HRP (sc-2020) (Santa Cruz Biotechnology); anti-phospho-Flt3 (#3461), anti-phospho-Stat6 (Tyr641, #9364), anti-Stat6, (#9362), anti-phospho-Stat5 (Tyr694, #9359), anti-Stat5 (#9358), anti-phospho-AKT (Ser473, #9271L), anti-AKT (#9272), anti-phospho-p44/42-MAPK (ERK1/2, Thr202/Tyr204, #9106), anti-p44/42-MAPK (#9102), anti-PARP (#9542), anti-Caspase-3 (#9665), anti-Tyro-3 (#5585) (Cell Signaling Technology); anti-Axl (AF154, R&D Systems); goat-anti-mouse IgG-HRP, goat-anti-rabbit IgG-HRP (BioRad). Proteins were visualized by horseradish peroxidase chemiluminescence detection (Perkin-Elmer).

[4] = system: AML cell lines expressing Mer or Flt3 internal tandem duplication (ITD); assay: Apoptosis by flow cytometry, AML cell lines expressing Mer or Flt3-ITD (all lines together)
Procedure: (§2) To assess apoptosis, AML cell lines were cultured at 3 × 10^5 cells, and 1 × 10^6 AML patient blasts were co-cultured with 3.5 × 10^5 HS27 cells per condition in 24 well plates, and treated for 72 hours. […] Flow cytometry data were analyzed using Modfit Cell Cycle Analysis software (Verity Software House). In replating assays, cells were similarly plated and treated, then harvested cells were washed twice, and 1.5 × 10^4 viable cells/ml were cultured in cRPMI for six days. Six days after replating, viable myeloblast count was determined by trypan blue exclusion using a Cedex XS Analyzer (Roche).

TRKB = TRKB (Homo sapiens, UniProt Q16620); assay: Protein kinase profiling panel (Carna Biosciences), TRKB; details: read-out: Percent Inhibition at 46 nM, TRKB
[5] = system: Erk1/2, Akt and Stat5 phosphorylation; assay: Downstream signaling immunoblot in Flt3-ITD cell lines; format: cell-based; details: 50 nM, two hour treatment
Procedure: Whole cell lysates were prepared and proteins were resolved on Tris-Glycine SDS-PAGE gels (Invitrogen) and transferred onto nitrocellulose membranes. Membranes were blocked in tris-buffered saline with 0.1% Tween-20 containing 5% bovine serum albumin (when probing for Flt3) or 5% milk (when probing for all other molecules). For immunoprecipitation assays, cells were plated and treated as above, then treated with pervanadate for 10 minutes prior to cell lysis to stabilize the phosphorylation status. With the use of pervandate, it was not necessary to stimulate cells with exogenous Mer or Flt3 ligands (other than from fetal bovine serum) to detect phosphorylated Mer and Flt3 proteins. Anti-Mer antibody or anti-Flt3 and rec-Protein G-sepharose beads (Invitrogen) were added and lysates were incubated overnight on a rocking platform. Beads were washed and eluted proteins were resolved as above. Immunoprecipitate membranes were probed with an anti-phospho-Mer or anti-phospho-Flt3 antibody. After visualization, membranes were stripped and reprobed for total protein. […]

Flt3-ITD cell lines = assay: Apoptosis by flow cytometry, Flt3-ITD cell lines; format: cell-based; details: 72 hours, range over Flt3-ITD cell lines
Procedure: To assess apoptosis, AML cell lines were cultured at 3 × 10^5 cells, and 1 × 10^6 AML patient blasts were co-cultured with 3.5 × 10^5 HS27 cells per condition in 24 well plates, and treated for 72 hours. Harvested cells were washed, resuspended in PBS containing 1 μM YO-PRO®-1 iodide (Invitrogen) and 1.5 μM propidium iodide (PI) (Invitrogen), and incubated on ice for 15–20 minutes. […] . Flow cytometry data were analyzed using Modfit Cell Cycle Analysis software (Verity Software House). In replating assays, cells were similarly plated and treated, then harvested cells were washed twice, and 1.5 × 10^4 viable cells/ml were cultured in cRPMI for six days. Six days after replating, viable myeloblast count was determined by trypan blue exclusion using a Cedex XS Analyzer (Roche).

[6] = Pharmacokinetics in a murine model; details: mouse, in vivo, po
[7] = system: primary AML patient samples; assay: Colony formation in methylcellulose, primary AML patient samples; format: cell-based, human
Procedure: as §1

NOMO-1 = assay: Soft agar colony formation assay, NOMO-1; format: cell-based; details: NOMO-1, 100 nM, 14 days, normalized to vehicle
Procedure: as §1

TrkA [8] = molecular target: T1, TrkA (Homo sapiens, UniProt P04629); assay: Protein kinase profiling panel (Carna Biosciences), TRKA; details: read-out: Percent Inhibition at 46 nM, TRKA
MV4;11 cell line [9] = assay: Replating (rebound growth) assay, MV4;11; details: MV4;11, 50 nM for 72 hours then washed, replated at 1.5 × 10^4 viable cells/ml
Procedure: as §2

MV4;11 = assay: Soft agar colony formation assay, MV4;11; format: cell-based; details: MV4;11, 50 nM, 14 days, normalized to vehicle
Procedure: as §1

[10] = system: Mer-expressing cell lines; assay: Apoptosis by flow cytometry, Mer-expressing cell lines; details: 72 hours, range over Mer-expressing cell lines
Procedure: as §2

[11] = system: primary AML patient samples; assay: Apoptosis by flow cytometry in primary AML patient samples co-cultured with HS27 stromal cells; format: cell-based, human
Excerpt: Cell lines MV4;11, NOMO-1, KG-1a, NB-4, and HEL were obtained from the German Collection of Microorganisms and Cell Culture (DSMZ); Kasumi-1 and U937 were obtained from the American Type Culture Collection (ATCC); MOLM-13 was a gift from Robert Arceci (Johns Hopkins); HS-27 was a gift from Kathrin Bernt (University of Colorado). AML cell lines were maintained in RPMI medium (HyClone) supplemented with 10% FBS and penicillin/streptomycin (cRPMI). Cell line identities were confirmed using short tandem repeat microsatellite loci analysis. HS-27 stromal cells were maintained in DMEM with 10% FBS and penicillin/streptomycin prior to co-culture. De-identified cord blood samples and primary patient myeloblasts apheresed from peripheral blood were obtained from the University of Colorado after written informed consent in accordance with the Declaration of Helsinki. Experiments conformed to regulatory standards as approved by the Colorado Multiple Institutional Review Board. AML patient samples were maintained as previously described, with HS-27 stromal co-culture for apoptosis and cell cycle experiments.
To assess apoptosis, AML cell lines were cultured at 3 × 10^5 cells, and 1 × 10^6 AML patient blasts were co-cultured with 3.5 × 10^5 HS27 cells per condition in 24 well plates, and treated for 72 hours. Harvested cells were washed, resuspended in PBS containing 1 μM YO-PRO®-1 iodide (Invitrogen) and 1.5 μM propidium iodide (PI) (Invitrogen), and incubated on ice for 15–20 minutes. […] Flow cytometry data were analyzed using Modfit Cell Cycle Analysis software (Verity Software House). In replating assays, cells were similarly plated and treated, then harvested cells were washed twice, and 1.5 × 10^4 viable cells/ml were cultured in cRPMI for six days. Six days after replating, viable myeloblast count was determined by trypan blue exclusion using a Cedex XS Analyzer (Roche).

Kasumi-1 cell line [12] = assay: Apoptosis by flow cytometry (YO-PRO-1 iodide / propidium iodide), Kasumi-1; details: Kasumi-1, 300 nM, 72 hour; vehicle 30 ± 7%
Procedure: as §2

MOLM-13 cell line = assay: Apoptosis by flow cytometry (YO-PRO-1 iodide / propidium iodide), MOLM-13; details: MOLM-13, 300 nM, 72 hours; vehicle 8 ± 1%
Procedure: as §2

TrkA [13] = molecular target: T1, TrkA; assay: Microfluidic capillary electrophoresis (MCE) enzymatic assay, TrkA
Procedure: Microfluidic capillary electrophoresis (MCE) enzyme (40 μL, 4 nM Mer) and allowed to incubate for
assay 10 min followed by addition of 32 μL of substrate mix
polypropylene microplate with a final volume of 50μL in reads total, on an EZReader, using upstream voltage =
50mM Hepes, pH 7.4 containing 10mM MgCl2, 1.0 mM −2250V, downstream voltage = −500V and pressure =
DTT, 0.01% Triton X-100, 0.1% bovine serum albumin −1.0 psi (sip time 0.2 sec, buffer 30 sec). The steady-state
(BSA) (MCE Buffer), with 1.0 μM fluorescent substrate velocity was analyzed by linear regression of the peptide
and ATP at Km for each enzyme (Supplemental Table 1). as percent-conversion/min, and a plot of nM compound
70 mM EDTA. Phosphorylated and unphosphorylated using GraphPad Prism (v5.01, GraphPad Software), Y =
Reader software. velocity, X = inhibitor concentration).
Morrison Tight-Binding Method (35).
2.0 nM Mer, and 1.0 μM peptide substrate.

AML cell lines = assay: Cell cycle analysis (propidium iodide, ModFit) in AML cell lines; details: significant at the 300 nM dose, 72 hours
Procedure: as §2

MV4;11 cell line [14] = assay: Apoptosis by flow cytometry (YO-PRO-1 iodide / propidium iodide), MV4;11; details: MV4;11, 300 nM, 72 hours; vehicle 13 ± 3%
Procedure: as §2

MOLM-13 = assay: Soft agar colony formation assay, MOLM-13; format: cell-based; details: MOLM-13, 50 nM, 14 days, normalized to vehicle
Procedure: as §1

TRKC = TRKC (Homo sapiens, UniProt Q16288); assay: Protein kinase profiling panel (Carna Biosciences), TRKC; details: read-out: Percent Inhibition at 46 nM, TRKC
Kasumi-1 cell line [15] = assay: Replating (rebound growth) assay, Kasumi-1; details: Kasumi-1, 100 nM for 72 hours then washed, replated at 1.5 × 10^4 viable cells/ml; vehicle 2.0 × 10^5
Procedure: as §2

[16] = set-up: method as in PMID 23693152; details: cited from earlier work
[17] = set-up: method as in PMID 23693152; details: cited from earlier work; remark: listed apart in the source
Flt3 = Flt3 (Homo sapiens, UniProt P36888); assay: Microfluidic capillary electrophoresis (MCE) enzymatic assay, Flt3; format: biochemical; details: ATP at Km
Mer = Mer (Homo sapiens, UniProt Q12866); assay: Microfluidic capillary electrophoresis (MCE) enzymatic assay, Mer; format: biochemical; details: ATP at Km
Mer, sequence (Q12866 21-999): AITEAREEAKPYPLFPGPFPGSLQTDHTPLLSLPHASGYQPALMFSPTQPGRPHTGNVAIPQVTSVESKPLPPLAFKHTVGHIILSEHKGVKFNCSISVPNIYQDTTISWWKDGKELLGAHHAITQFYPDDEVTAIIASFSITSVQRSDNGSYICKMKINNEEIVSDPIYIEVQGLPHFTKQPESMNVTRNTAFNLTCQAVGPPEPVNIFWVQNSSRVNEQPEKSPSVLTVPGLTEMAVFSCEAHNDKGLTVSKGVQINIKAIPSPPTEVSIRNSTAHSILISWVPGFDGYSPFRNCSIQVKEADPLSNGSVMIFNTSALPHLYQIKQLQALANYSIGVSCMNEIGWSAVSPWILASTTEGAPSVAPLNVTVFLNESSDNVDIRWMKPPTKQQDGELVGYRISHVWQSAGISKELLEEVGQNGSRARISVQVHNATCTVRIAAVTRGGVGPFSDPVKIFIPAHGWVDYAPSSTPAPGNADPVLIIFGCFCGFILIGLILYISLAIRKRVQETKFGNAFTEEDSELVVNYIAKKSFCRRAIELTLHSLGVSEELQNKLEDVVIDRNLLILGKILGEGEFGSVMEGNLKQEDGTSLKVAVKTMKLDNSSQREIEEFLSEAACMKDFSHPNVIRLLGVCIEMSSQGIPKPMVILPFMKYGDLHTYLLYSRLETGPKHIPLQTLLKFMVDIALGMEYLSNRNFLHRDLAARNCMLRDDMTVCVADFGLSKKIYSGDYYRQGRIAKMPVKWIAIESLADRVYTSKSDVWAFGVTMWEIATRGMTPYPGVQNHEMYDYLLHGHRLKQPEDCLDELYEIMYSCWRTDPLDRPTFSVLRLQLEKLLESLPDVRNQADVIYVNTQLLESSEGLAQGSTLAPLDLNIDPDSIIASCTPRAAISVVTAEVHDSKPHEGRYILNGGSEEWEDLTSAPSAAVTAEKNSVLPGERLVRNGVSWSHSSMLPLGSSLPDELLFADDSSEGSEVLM

T1 sequence (P04629 33-796): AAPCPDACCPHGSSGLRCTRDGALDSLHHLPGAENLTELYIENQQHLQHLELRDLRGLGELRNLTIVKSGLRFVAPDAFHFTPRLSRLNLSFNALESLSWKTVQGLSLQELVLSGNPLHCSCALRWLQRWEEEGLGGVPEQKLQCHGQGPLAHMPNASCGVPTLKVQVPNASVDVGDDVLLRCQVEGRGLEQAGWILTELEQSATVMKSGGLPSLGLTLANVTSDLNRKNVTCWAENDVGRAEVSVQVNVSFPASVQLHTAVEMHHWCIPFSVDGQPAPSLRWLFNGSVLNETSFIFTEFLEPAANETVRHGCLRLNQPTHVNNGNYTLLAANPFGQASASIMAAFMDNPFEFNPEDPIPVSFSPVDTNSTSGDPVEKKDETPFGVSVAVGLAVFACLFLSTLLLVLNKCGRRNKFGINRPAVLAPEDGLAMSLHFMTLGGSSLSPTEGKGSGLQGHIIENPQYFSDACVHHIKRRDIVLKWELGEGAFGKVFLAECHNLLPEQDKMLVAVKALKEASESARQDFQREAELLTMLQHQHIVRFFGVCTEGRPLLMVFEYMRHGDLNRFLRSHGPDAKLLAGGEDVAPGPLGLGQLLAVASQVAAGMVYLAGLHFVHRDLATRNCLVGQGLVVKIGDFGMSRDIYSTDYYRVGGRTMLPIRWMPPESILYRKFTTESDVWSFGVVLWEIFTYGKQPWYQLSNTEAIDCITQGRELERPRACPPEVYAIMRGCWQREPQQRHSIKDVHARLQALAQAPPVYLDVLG
Flt3, sequence (P36888 27-993): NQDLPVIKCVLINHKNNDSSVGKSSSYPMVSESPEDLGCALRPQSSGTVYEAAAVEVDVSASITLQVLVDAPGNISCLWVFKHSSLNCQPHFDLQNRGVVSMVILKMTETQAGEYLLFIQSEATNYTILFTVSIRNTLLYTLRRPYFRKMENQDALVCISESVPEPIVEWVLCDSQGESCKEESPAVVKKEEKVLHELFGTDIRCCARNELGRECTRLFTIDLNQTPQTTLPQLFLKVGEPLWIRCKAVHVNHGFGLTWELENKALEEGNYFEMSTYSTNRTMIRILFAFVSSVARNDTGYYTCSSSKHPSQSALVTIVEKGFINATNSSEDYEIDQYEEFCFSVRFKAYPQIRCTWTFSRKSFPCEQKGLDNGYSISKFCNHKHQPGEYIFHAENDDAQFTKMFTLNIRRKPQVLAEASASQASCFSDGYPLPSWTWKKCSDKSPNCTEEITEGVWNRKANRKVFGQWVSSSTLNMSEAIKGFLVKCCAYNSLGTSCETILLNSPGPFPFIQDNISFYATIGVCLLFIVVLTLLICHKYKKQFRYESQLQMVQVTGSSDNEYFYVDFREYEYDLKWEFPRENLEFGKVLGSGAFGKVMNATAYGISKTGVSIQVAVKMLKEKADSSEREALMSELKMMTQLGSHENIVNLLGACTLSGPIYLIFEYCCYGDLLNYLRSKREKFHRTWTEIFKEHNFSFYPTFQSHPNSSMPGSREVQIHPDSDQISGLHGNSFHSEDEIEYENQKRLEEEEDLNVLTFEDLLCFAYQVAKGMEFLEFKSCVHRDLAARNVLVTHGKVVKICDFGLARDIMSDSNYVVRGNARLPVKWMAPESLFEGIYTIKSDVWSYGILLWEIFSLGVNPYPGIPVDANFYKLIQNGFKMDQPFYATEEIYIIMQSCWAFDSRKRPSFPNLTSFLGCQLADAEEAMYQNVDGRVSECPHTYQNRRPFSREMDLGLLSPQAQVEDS
TRKB, sequence (Q16620 32-822): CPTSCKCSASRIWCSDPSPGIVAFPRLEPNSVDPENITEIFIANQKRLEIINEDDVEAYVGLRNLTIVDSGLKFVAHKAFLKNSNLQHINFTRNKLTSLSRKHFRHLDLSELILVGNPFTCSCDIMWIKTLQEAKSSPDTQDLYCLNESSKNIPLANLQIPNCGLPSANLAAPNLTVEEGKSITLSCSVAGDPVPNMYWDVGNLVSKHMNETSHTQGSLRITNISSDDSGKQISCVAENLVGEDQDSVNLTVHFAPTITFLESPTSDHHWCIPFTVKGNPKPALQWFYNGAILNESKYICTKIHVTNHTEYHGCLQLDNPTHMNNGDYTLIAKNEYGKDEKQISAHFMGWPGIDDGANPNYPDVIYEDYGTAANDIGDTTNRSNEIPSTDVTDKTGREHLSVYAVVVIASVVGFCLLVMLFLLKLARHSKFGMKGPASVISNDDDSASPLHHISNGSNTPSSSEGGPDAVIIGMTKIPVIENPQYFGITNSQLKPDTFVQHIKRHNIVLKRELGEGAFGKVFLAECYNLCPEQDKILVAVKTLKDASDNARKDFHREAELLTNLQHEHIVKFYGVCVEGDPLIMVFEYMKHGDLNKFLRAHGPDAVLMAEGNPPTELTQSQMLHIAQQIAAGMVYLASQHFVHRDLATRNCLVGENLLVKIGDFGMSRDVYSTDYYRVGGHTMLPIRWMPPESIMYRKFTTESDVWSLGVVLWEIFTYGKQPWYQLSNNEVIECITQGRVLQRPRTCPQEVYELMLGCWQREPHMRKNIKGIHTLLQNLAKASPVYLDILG
TRKC, sequence (Q16288 32-839): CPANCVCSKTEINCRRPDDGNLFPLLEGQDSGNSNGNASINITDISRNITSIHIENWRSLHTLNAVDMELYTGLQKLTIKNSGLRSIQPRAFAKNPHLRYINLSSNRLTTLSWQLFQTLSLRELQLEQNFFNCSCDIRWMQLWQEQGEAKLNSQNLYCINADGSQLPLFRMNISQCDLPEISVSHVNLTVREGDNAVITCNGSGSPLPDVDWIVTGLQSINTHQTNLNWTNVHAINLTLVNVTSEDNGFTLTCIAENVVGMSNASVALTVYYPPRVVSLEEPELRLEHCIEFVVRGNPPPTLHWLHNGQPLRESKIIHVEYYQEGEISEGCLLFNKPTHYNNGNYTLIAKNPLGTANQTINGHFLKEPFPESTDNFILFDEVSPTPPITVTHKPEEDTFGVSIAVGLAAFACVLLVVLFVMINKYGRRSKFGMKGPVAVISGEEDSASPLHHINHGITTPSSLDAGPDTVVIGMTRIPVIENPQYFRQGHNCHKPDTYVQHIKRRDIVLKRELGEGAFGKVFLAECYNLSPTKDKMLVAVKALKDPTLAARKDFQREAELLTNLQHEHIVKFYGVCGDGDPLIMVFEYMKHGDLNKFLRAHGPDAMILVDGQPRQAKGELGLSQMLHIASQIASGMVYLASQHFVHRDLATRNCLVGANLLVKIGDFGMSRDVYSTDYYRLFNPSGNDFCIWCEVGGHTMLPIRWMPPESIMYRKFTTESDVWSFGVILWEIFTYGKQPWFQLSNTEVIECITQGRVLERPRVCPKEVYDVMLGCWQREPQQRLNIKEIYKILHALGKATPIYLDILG

For `CCCCNc1ncc2c(-c3ccc(S(=O)(=O)N4CCOCC4)cc3)cn([C@H]3CC[C@H](O)CC3)c2n1` [UNC1666], the “Reduction of colony formation” value [1] was “greater than 90%”, the “Colony formation of normal cord blood hematopoietic precursors (in words)” value ([2]; 1 μM, methylcellulose, 14 days) was “trend towards decreased colony formation” and the “Decrease in colony formation of normal cord blood hematopoietic precursors (in words)” value ([2]; 10 μM, methylcellulose, 14 days) was “statistically significant”. The “Colony forming potential of hematopoietic progenitors in normal cord blood cultures (in words)” value ([2]; doses as high as 1 μM) was “did not affect the colony forming potential”, the “Colony number of normal cord blood hematopoietic precursors (in words)” value ([2]; doses up to 500 nM, n = 3, methylcellulose, 14 days) was “no significant reduction in colony number” and the “Reduction in colony formation” value (Kasumi-1) was 90 ± 6%. The “Erk1/2, Akt and Stat6 phosphorylation” value ([3]; 50 nM) was “diminished phosphorylation”, the “Erk1/2, Akt and Stat6 phosphorylation” value ([3]; 100 nM) was “moderate decrease” and the “Erk1/2, Akt and Stat6 phosphorylation” value ([3]; 300 nM) was “more complete inhibition”. The “Induction of apoptosis, % of cells” value ([4]; maximum over cell lines, compared to vehicle) was “up to 98%”, the inhibition at 0.046 µM (TRKB) was 95% and the “Erk1/2, Akt and Stat5 phosphorylation” value [5] was “near complete ablation of phosphorylation”. The “Cells apoptotic or dead” value (Flt3-ITD cell lines; 50 nM) was 54–67%, the “Cells apoptotic or dead” value (Flt3-ITD cell lines; 300 nM) was 90–98% and the bioavailability [6] was 8%. For the same compound, the “Concentrations at which patient-derived myeloblasts are sensitive in methylcellulose cultures” value ([7]; as low as) was 5 to 50 nM, the “Colony formation (in words)” value ([7]; concentrations as low as 50 nM, in all but one sample, 10 days, methylcellulose) was “near complete abrogation of colony formation” and the “Reduction in colony formation” value (NOMO-1) was 71 ± 4%. The inhibition at 0.046 µM (TrkA [8]) was 101%, the “Viable cell number at Day 6 after replating” value (MV4;11 cell line [9]; vehicle 10 × 10^5) was 2.0 × 10^5 viable cells/ml and the “Increase in viable cell number over six days after replating” value (MV4;11 cell line [9]; vehicle 67-fold) was 13 fold. The Reduction in colonies (MV4;11) was 61 ± 22%, the “Induction of apoptosis, % of cells” value ([10]; 100 nM) was 50–67% and the “Induction of apoptosis, % of cells” value ([10]; 300 nM) was 68–76%. The “Anti-proliferative effects in patient samples (in words)” value ([11]; 50 nM, co-culture with stromal cells) was “near complete induction of apoptosis and growth inhibition”, the “Induction of apoptosis (in words)” value ([11]; 72 hours, HS27 stromal co-culture) was “induce apoptosis in all patient samples” and the “Concentrations at which functional effects (decreased ability to evade apoptosis, decreased colony formation) occurred” value ([11]; AML patient samples that co-expressed Mer and Flt3) was 5 to 100 nM. The “Cells apoptotic or dead” value (Kasumi-1 cell line [12]) was 76 ± 8%, the “Apoptosis (cells apoptotic or dead)” value (MOLM-13 cell line) was 98 ± 2% and the pIC50 (TrkA [13]) was 9.24. For the same compound, the “Cell cycle effect (in words)” value (AML cell lines) was “accumulation of cells in G2M phase”, the “Apoptosis (cells apoptotic or dead)” value (MV4;11 cell line [14]) was 90 ± 1% and the Reduction in colonies (MOLM-13) was 93 ± 6%. The inhibition at 0.046 µM (TRKC) was 98% and the “Viable cell number at Day 6 after replating” value (Kasumi-1 cell line [15]) was 0.3 × 10^5 cells/ml.
For `CCCCNc1ncc2c(-c3ccc(S(=O)(=O)N4CCOCC4)cc3)nn(C3CCC(O)CC3)c2n1` (stereo not shown) [UNC1062], the “In vivo pharmacokinetic properties (in words)” value [16] is given as “poor in vivo pharmacokinetic properties” and the “Solubility (in words)” value [17] is given as “low solubility”.
In the case of `CCCCN(C)c1ncc2c(-c3ccc(F)cc3)nn(C[C@H]3CC[C@H](N)CC3)c2n1` [UNC1653], the “Induction of apoptosis (in words)” value ([4]; 72 hours, Mer-expressing or Flt3-ITD cell lines) was “did not induce apoptosis”, the pIC50 (Flt3) was 6.66 and the pIC50 (Mer) was 6.25.
